Measurements: the NIST ThermoML archive (doi:10.1016/j.jct.2012.04.029)
± gives the expanded uncertainty stated by the source.

Conditions: Liquid, Ebulliometric method (Recirculating still)

COCC(C)O (stereo not drawn) [1-methoxy-2-propanol]
Conditions | vapor or sublimation pressure [kPa]
342.3 K | 15 ± 0.3
352.5 K | 23.5 ± 0.4
360.1 K | 32 ± 0.4
367.4 K | 42.1 ± 0.4
371.6 K | 49.1 ± 0.5
376 K | 57.6 ± 0.5
380 K | 66.1 ± 0.5
383.5 K | 74.6 ± 0.6
386.9 K | 83.3 ± 0.6
390.1 K | 92.6 ± 0.6
392.8 K | 99.9 ± 0.7
397.9 K | 116.9 ± 0.8
400 K | 125.5 ± 0.9
402.2 K | 134 ± 0.9
404.3 K | 142.5 ± 0.9
406.3 K | 151 ± 0.9
408.2 K | 159.5 ± 1
410 K | 168 ± 1
411.8 K | 176.5 ± 1

COCCO [2-methoxyethan-1-ol]
Conditions | vapor or sublimation pressure [kPa]
346.4 K | 15 ± 0.3
356.9 K | 23.5 ± 0.4
364.7 K | 32 ± 0.4
376 K | 49 ± 0.4
380.6 K | 57.5 ± 0.5
384.5 K | 66 ± 0.5
388.1 K | 74.5 ± 0.6
391.3 K | 83 ± 0.6
394.4 K | 91.5 ± 0.7
397.2 K | 100 ± 0.7
400.1 K | 108.5 ± 0.7
402.6 K | 117 ± 0.8
404.9 K | 125.5 ± 0.8
407 K | 134 ± 0.9
409.1 K | 142.5 ± 0.9
411.1 K | 151 ± 0.9
412.9 K | 159.5 ± 1
414.7 K | 168 ± 1
416.6 K | 176.5 ± 0.9
